Test results as given in the supplement of paper PMC10307832.

Columns and labels:
AZ505 + Dasatinib = compound: C1CCC(CC1)N(CCNCCC2=C3C(=C(C=C2)O)NC(=O)CO3)C(=O)CCNCCC4=CC(=C(C=C4)Cl)Cl [AZ505] + Cc1nc(Nc2ncc(C(=O)Nc3c(C)cccc3Cl)s2)cc(N2CCN(CCO)CC2)n1 [Dasatinib] (partner 0.075 µM); assay: relative viability (nuclei count vs DMSO), 5 days (fraction); higher = more cells survive
How it was run: (§1)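 After 5 days of treatment, lung cancer cells in 1536-well plates were fixed and stained in a single step (final 0.05% Triton X-100, 1% formaldehyde, 1 ug/ml Hoechst) and their nuclei counted on 4× images. Treatment had been applied by pin tool the day after seeding as one drug alone or as a fixed anchor-drug dose with five library-drug doses (not always all listed) in √10 steps. Relative viability is the nuclei count of treated wells divided by that of vehicle wells, and values are medians of duplicate plates.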

AZ505 + Luminespib = compound: C1CCC(CC1)N(CCNCCC2=C3C(=C(C=C2)O)NC(=O)CO3)C(=O)CCNCCC4=CC(=C(C=C4)Cl)Cl [AZ505] + CCNC(=O)c1noc(-c2cc(C(C)C)c(O)cc2O)c1-c1ccc(CN2CCOCC2)cc1 [Luminespib] (partner 0.01 µM); assay: as above
How it was run: as §1

Cell Line	relative viability (AZ505 + Dasatinib; first compound 0.08 µM)	relative viability (AZ505 + Dasatinib; first compound 0.253 µM)	relative viability (AZ505 + Dasatinib; first compound 0.8 µM)	relative viability (AZ505 + Dasatinib; first compound 2.53 µM)	relative viability (AZ505 + Dasatinib; first compound 8 µM)	relative viability (AZ505 + Luminespib; first compound 0.08 µM)	relative viability (AZ505 + Luminespib; first compound 0.253 µM)	relative viability (AZ505 + Luminespib; first compound 0.8 µM)	relative viability (AZ505 + Luminespib; first compound 2.53 µM)	relative viability (AZ505 + Luminespib; first compound 8 µM)
NCI-H2342	0.312	0.317	0.316	0.346	0.351	0.792	0.662	0.814	0.687	0.738
HCC-15	0.513	0.581	0.654	0.524	0.618	0.264	0.323	0.346	0.312	0.302
A-427	0.659	0.693	0.622	0.749	0.682	0.708	1.02	0.789	1.01	1.38
NCI-H2228	0.447	0.421	0.51	0.457	0.443	0.114	0.182	0.145	0.138	0.14
NCI-H1734	0.456	0.467	0.482	0.478	0.417	0.234	0.197	0.221	0.232	0.161
SK-LU-1	0.182	0.168	0.163	0.161	0.16	0.201	0.203	0.18	0.18	0.176
PC-14	0.219	0.241	0.296	0.264	0.227	0.135	0.215	0.135	0.145	0.132
NCI-H1915	0.28	0.298	0.269	0.275	0.337	0.769	0.928	0.75	0.783	0.986
NCI-H1666	0.745	0.795	0.783	0.828	0.69	0.974	0.952	0.931	0.987	0.997
HCC-366	0.604	0.625	0.78	0.527	0.608	–	–	–	–	–
SK-MES-1	0.373	0.402	0.302	0.353	0.36	0.511	0.77	0.758	0.643	0.768
NCI-H661	0.862	0.932	0.731	0.958	0.964	0.879	0.928	0.909	0.914	0.928
PC-3 [JPC-3]	0.848	0.968	0.864	0.937	0.858	0.65	0.697	0.661	0.635	0.739
NCI-H1623	0.488	0.466	0.598	0.479	0.612	0.604	0.46	0.58	0.503	0.681
LC-2-ad	0.578	0.564	0.558	0.604	0.665	0.927	0.881	1.06	0.868	1.16
CAL-12T	0.466	0.585	0.381	0.413	0.472	0.341	0.596	0.265	0.377	0.64
RERF-LC-KJ	0.72	0.772	0.763	0.743	0.752	1.24	1.33	1.22	1.2	1.03
NCI-H1650	0.298	0.281	0.37	0.321	0.295	0.206	0.227	0.202	0.19	0.199
BEN	0.359	0.327	0.386	0.355	0.296	0.367	0.564	0.352	0.336	0.449
EMC-BAC-2	0.312	0.329	0.322	0.35	0.354	1.14	1.13	1.23	1.03	1.19
LU99A	–	0.475	0.618	0.48	0.536	–	0.268	0.212	0.175	0.286
ABC-1	0.539	0.524	0.542	0.58	0.515	0.865	0.472	0.524	0.839	0.717
NCI-H2170	0.541	0.608	0.444	0.695	0.509	0.637	0.606	0.512	0.714	0.835

Cell Line	relative viability (AZ505 + Dasatinib; first compound 0.08 µM)	relative viability (AZ505 + Dasatinib; first compound 0.253 µM)	relative viability (AZ505 + Dasatinib; first compound 0.8 µM)	relative viability (AZ505 + Dasatinib; first compound 2.53 µM)	relative viability (AZ505 + Dasatinib; first compound 8 µM)	relative viability (AZ505 + Luminespib; first compound 0.08 µM)	relative viability (AZ505 + Luminespib; first compound 0.253 µM)	relative viability (AZ505 + Luminespib; first compound 0.8 µM)	relative viability (AZ505 + Luminespib; first compound 2.53 µM)	relative viability (AZ505 + Luminespib; first compound 8 µM)
NCI-H2347	0.254	–	–	–	0.279	0.32	–	–	–	0.494
NCI-H1993	0.653	0.722	0.611	0.623	0.737	0.842	0.795	0.716	0.911	0.861
NCI-H322M	0.24	0.233	0.239	0.261	0.273	0.931	0.84	0.798	0.819	0.918
NCI-H838	0.233	0.273	0.298	0.28	0.308	0.413	0.251	0.253	0.287	0.424
HARA	0.191	0.229	0.367	0.318	0.217	0.622	0.32	0.444	0.628	0.324
NCI-H2087	0.832	0.669	0.808	0.551	0.884	0.171	0.191	0.217	0.154	0.238
NCI-H1437	0.346	0.334	0.58	0.378	0.376	1.04	1.15	1.17	1.09	1.07
NCI-H1792	0.734	–	0.697	0.69	0.684	0.359	–	0.452	0.478	0.404
ChaGo-K-1	0.663	0.702	0.616	0.657	0.604	0.513	0.603	0.556	0.673	0.474
NCI-H650	0.425	0.408	0.447	0.547	0.452	0.726	0.777	0.835	0.774	0.709
COR-L23	0.351	0.427	0.358	0.383	0.475	0.54	0.771	0.611	0.613	0.706
COR-L 105	0.383	0.352	0.318	0.342	0.367	0.739	0.707	0.765	0.831	0.905
LK-2	0.254	0.327	0.415	0.431	0.366	0.189	0.175	0.172	0.225	0.176
201T	0.589	0.548	0.627	0.601	0.535	1.01	1.05	1.01	1.02	1.08
HCC-44	–	–	–	–	–	0.969	1.03	1.03	1.09	1.18
NCI-H596	0.605	0.577	0.591	0.657	0.56	0.928	0.917	0.976	0.992	0.965
H3255	0.368	0.316	0.369	0.388	0.483	0.887	0.811	0.939	0.876	0.963
NCI-H647	0.233	0.104	0.158	0.194	0.162	0.122	0.221	0.119	0.134	0.138
NCI-H2023	0.509	0.534	0.58	0.503	0.732	0.727	0.873	0.712	0.83	0.968
NCI-H23	0.721	–	0.722	0.797	0.877	0.214	–	0.208	0.221	0.196
NCI-H1944	0.212	0.188	0.246	0.203	0.224	0.827	0.715	0.77	0.707	0.738
NCI-H1793	0.345	0.439	0.394	–	0.439	0.199	0.173	0.179	–	0.167
NCI-H520	0.198	0.217	0.181	0.229	0.26	0.232	0.186	0.312	0.239	0.211

Cell Line	relative viability (AZ505 + Dasatinib; first compound 0.08 µM)	relative viability (AZ505 + Dasatinib; first compound 0.253 µM)	relative viability (AZ505 + Dasatinib; first compound 0.8 µM)	relative viability (AZ505 + Dasatinib; first compound 2.53 µM)	relative viability (AZ505 + Dasatinib; first compound 8 µM)	relative viability (AZ505 + Luminespib; first compound 0.08 µM)	relative viability (AZ505 + Luminespib; first compound 0.253 µM)	relative viability (AZ505 + Luminespib; first compound 0.8 µM)	relative viability (AZ505 + Luminespib; first compound 2.53 µM)	relative viability (AZ505 + Luminespib; first compound 8 µM)
NCI-H460	0.529	0.416	0.557	0.314	0.59	0.0296	0.0436	0.0262	0.0334	0.0373
EKVX	0.556	0.543	0.539	0.494	0.504	0.873	0.615	0.831	0.846	0.91
NCI-H358	0.226	0.145	0.192	0.115	0.167	0.22	0.306	0.402	–	0.584
EPLC-272H	–	0.371	0.315	0.265	0.344	–	0.161	0.373	0.25	0.301
NCI-H1563	0.456	0.467	0.498	0.481	0.432	0.478	0.504	0.522	0.473	0.508
NCI-H1395	0.427	0.451	0.375	0.419	0.455	0.618	0.752	0.693	0.696	0.66
NCI-H2126	0.578	0.579	0.601	0.646	0.586	0.771	0.889	0.903	0.943	1.02
LXF-289	0.231	0.189	0.169	0.249	0.181	0.663	0.685	0.668	0.73	0.818
NCI-H2009	0.221	0.267	0.219	0.237	0.242	0.847	1.08	1.02	0.956	0.962
NCI-H522	0.923	0.843	0.801	0.877	0.948	1.12	1.19	1.2	1.33	1.18
NCI-H2405	0.187	0.151	0.133	0.203	0.176	0.598	0.474	0.586	0.597	0.474
NCI-H1755	0.393	0.51	0.43	0.442	0.474	0.505	0.589	0.448	0.594	0.444
HCC-78	0.336	0.411	0.333	0.445	0.425	–	–	–	–	–
LOU-NH91	0.536	0.537	0.452	0.53	0.601	0.326	0.331	0.331	0.347	0.38
NCI-H3122	0.729	0.829	0.806	0.661	0.899	0.0979	0.0993	0.0953	0.0964	0.0997
HCC-827	0.399	0.35	0.385	0.313	0.407	0.731	1.03	0.683	0.532	1.11
SW 1573	0.476	0.605	0.414	0.594	0.426	0.165	0.257	0.427	0.0963	0.277
NCI-H1975	0.343	0.358	0.425	0.343	0.495	0.198	0.197	0.197	0.162	0.2
NCI-H1651	0.47	0.416	0.386	0.441	0.49	0.78	0.881	0.736	0.841	0.944
NCI-H441	0.35	0.619	0.659	0.549	0.694	0.248	0.388	0.313	0.308	0.445
LCLC-103H	0.407	0.415	0.393	0.481	0.451	0.914	0.961	0.877	0.877	0.997
LCLC-97TM1	0.77	0.795	0.767	0.674	0.88	0.774	0.853	0.836	0.749	0.871
